Data from ChEMBL document CHEMBL4765274, “The development of advanced structural framework as multi-target-directed ligands for the treatment of Alzheimer's disease” (Eur J Med Chem, 2020).
The source made the active and inactive calls. The rule behind the calls is not given here.

Tests used:
[1] = Toxicity in 2 dpf zebra fish assessed as bradycardia at 25 ug/ml after 3 days relative to control; set-up: species or system Danio rerio; settings: zebrafish, 72 h, at 25 µg/mL, time 3 day
[2] = Toxicity in 2 dpf zebra fish assessed as dark brown liver at 8.33 ug/ml after 3 days relative to control; set-up: species or system Danio rerio; settings: zebrafish, 72 h, at 8.33 µg/mL, time 3 day
Acetylcholinesterase [3] = biological target: T1, Acetylcholinesterase (Homo sapiens, UniProt P22303); assay: Inhibition of AChE in human erythrocytes by Ellman's method; assay type: cell-based, Erythrocyte
Danio rerio [4] = organism: Danio rerio; assay: Antialzheimer activity in Alcl3-induced zebra fish AD model assessed as increase in motility; assay type: functional, organism-based
[5] = Drug metabolism in mouse blood assessed as metabolite formation by UPLC-TOF analysis; assay type: ADME, tissue-based
U-87MG ATCC = assay: Induction of autophagy in human U87 cells stably transfected GFP-LC3 assessed as increase in GFP-LC3 puncta formation at 10 uM after 24 hrs by fluorescence microscopic method; assay type: functional, cell-based
HT-22 [6] = assay: Activation of ubiquitin-proteasome system in mouse HT-22 cells expressing YFP-CLI assessed as reduction in GFP level at 10 uM after 24 hrs by flow cytometric analysis; assay type: cell-based; settings: filed as activator
HT-22 [7] = assay: Activation of ubiquitin-proteasome system in mouse HT-22 cells expressing pRK5-GFP-Tau assessed as increase in tau degradation by measuring reduction in GFP level at 2.5 to 20 uM after 24 hrs by Western blot analysis; assay type: cell-based; settings: filed as activator, dose 2.5-20 µM
[8] = Toxicity in 2 dpf zebra fish assessed as slow blood flow at 25 ug/ml after 3 days relative to control; assay type: tissue-based, Danio rerio; settings: zebrafish, 72 h, at 25 µg/mL, time 3 day
[9] = Toxicity in 2 dpf zebra fish assessed as absent blood flow at 25 ug/ml after 3 days relative to control; assay type: tissue-based, Danio rerio; settings: zebrafish, 72 h, at 25 µg/mL, time 3 day
Mus musculus [10] = assay: Antialzheimer activity in scopolamine-induced Kunming mouse model of memory impairment assessed as latency time at 20 mg/kg , po by step-down passive avoidance test (reference value: 125.65 sec); assay type: functional
[11] = Disaggregation of Cu2+ induced amyloid beta (1 to 42 residues) (unknown origin) aggregation at 25 uM by thioflavin-T fluorescence method relative to control
[12] = Inhibition of self-induced amyloid beta (1 to 42 residues) (unknown origin) aggregation by thioflavin T based fluorescence assay; set-up: species or system Homo sapiens; settings: read-out: IC50
[13] = Toxicity in 2 dpf zebra fish assessed as absent blood flow at 8.33 ug/ml after 3 days relative to control; assay type: tissue-based, Danio rerio; settings: zebrafish, 72 h, at 8.33 µg/mL, time 3 day
[14] = Toxicity in 2 dpf zebra fish assessed as change in body shape at 25 ug/ml after 3 days relative to control; set-up: species or system Danio rerio; settings: zebrafish, 72 h, at 25 µg/mL, time 3 day
HT-22 [15] = assay: Activation of ubiquitin-proteasome system in mouse HT-22 cells expressing pRK5-GFP-Tau P301L mutant assessed as increase in tau degradation by measuring reduction in GFP level after 24 hrs by fluorescence microscopic method; assay type: cell-based; settings: filed as activator, dose 2.5-20 µM
Homo sapiens [16] = organism: Homo sapiens; assay: Binding affinity to amyloid beta (1 to 42 residues) (unknown origin) assessed as dissociation rate constant by biolayer interferometry analysis
HT-22 [17] = assay: Activation of ubiquitin-proteasome system in mouse HT-22 cells expressing pRK5-GFP-Tau P301L mutant assessed as increase in tau degradation by measuring reduction in GFP level at 2.5 to 20 uM after 24 hrs by Western blot analysis; assay type: cell-based; settings: filed as activator, dose 2.5-20 µM
Homo sapiens [18] = organism: Homo sapiens; assay: (§1) Binding affinity to amyloid beta (1 to 42 residues) (unknown origin) by biolayer interferometry analysis
[19] = as §1; set-up: species or system Homo sapiens
[20] = Drug metabolism in rat liver microsomes assessed as metabolite formation by UPLC-TOF analysis; assay type: ADME, Microsome
Danio rerio [21] = organism: Danio rerio; assay: Antialzheimer activity in Alcl3-induced zebra fish AD model assessed as increase in motility at 0.09 ug/ml relative to control; assay type: functional; settings: dose 0.09 µg/ml
[22] = Drug metabolism in mouse urine assessed as metabolite formation by UPLC-TOF analysis; assay type: ADME
Acetylcholinesterase [23] = biological target: T1, Acetylcholinesterase; assay: Mixed type inhibition of human AChE using acetylthiocholine as substrate by Line-weaver Burk plot analysis
Mus musculus [24] = assay: Antialzheimer activity in scopolamine-induced Kunming mouse model of memory impairment assessed as uniquely mapped in brain hippocampus at 5 mg/kg , po by illumina sequencing method (reference value: 94.54%); assay type: functional
[25] = Toxicity in 2 dpf zebra fish at 25 ug/ml after 3 days; set-up: species or system Danio rerio; settings: zebrafish, 72 h; dose 25 µg/ml, time 3 day
SH-SY5Y = assay: Neuroprotective activity against amyloid beta (1 to 42 residues)-induced cytotoxicity in human SH-SY5Y cells assessed as increase in cell viability at 1 to 10 uM incubated for 48 hrs by MTT assay; assay type: functional, cell-based; settings: dose 1-10 µM
[26] = Toxicity in 2 dpf zebra fish assessed as yolk sac absorption delay at 2.78 ug/ml after 3 days relative to control; set-up: species or system Danio rerio; settings: zebrafish, 72 h, at 2.78 µg/mL, time 3 day
[27] = Drug metabolism in mouse feces assessed as metabolite formation by UPLC-TOF analysis; assay type: ADME
HT-22 [28] = assay: Activation of ubiquitin-proteasome system in mouse HT-22 cells expressing pRK5-GFP-Tau assessed as increase in tau degradation by measuring reduction in GFP level after 24 hrs by flow cytometric analysis; assay type: cell-based; settings: filed as activator, dose 2.5-20 µM
[29] = Metal chelating activity assessed as Al3+-compound complex formation in methanol at 37.5 uM by UV-Visible spectra analysis
Danio rerio [30] = organism: Danio rerio; assay: Antialzheimer activity in amyloid beta (1 to 40 residues)-induced zebra fish AD model assessed as reduction in vascular injury at 0.26 ug/ml relative to control; assay type: functional; set-up: scale not given: the % may be the effect or the level left; settings: dose 0.26 µg/ml
[31] = Effect on GFP expression in mouse HT-22 cells expressing pEGFP-N1 at 10 uM after 24 hrs by flow cytometric analysis; assay type: ADME, cell-based; settings: ht-22, 24 h
Cholinesterase [32] = biological target: T2, Cholinesterase (Homo sapiens, UniProt P06276); assay: Inhibition of human serum BChE by Ellman's method; assay type: cell-free
Cholinesterase [33] = biological target: T2, Cholinesterase; assay: Reversible inhibition of human BChE assessed as residual activity at 0.1 times of IC50 concentration after 240 mins relative to control
Danio rerio [34] = organism: Danio rerio; assay: Antialzheimer activity in Alcl3-induced zebra fish AD model assessed as increase dyskinesia recovery rate at 0.09 ug/ml relative to control; assay type: functional; settings: dose 0.09 µg/ml
PC-12 = assay: Neuroprotective activity against H2O2-induced cytotoxicity in rat PC-12 cells assessed as increase in cell viability preincubated for 2 hrs followed by H2O2 addition and measured after 24 hrs by MTT assay; assay type: functional, cell-based; settings: dose 1-10 µM, time 26.0 hrs
[35] = Metal chelating activity assessed as Al3+-compound complex formation in PBS buffer at pH 7.4 at 37.5 uM by UV-Visible spectra analysis
[36] = Metal chelating activity assessed as Fe2+-compound complex formation in PBS buffer at pH 7.4 at 37.5 uM by UV-Visible spectra analysis
[37] = Drug metabolism in human liver microsomes assessed as metabolite formation by UPLC-TOF analysis; assay type: ADME, Microsome
[38] = Inhibition of Cu2+-induced amyloid beta (unknown origin) aggregation after 24 hrs by TEM analysis
[39] = Toxicity in 2 dpf zebra fish assessed as yolk sac absorption delay at 8.33 ug/ml after 3 days relative to control; set-up: species or system Danio rerio; settings: zebrafish, 72 h, at 8.33 µg/mL, time 3 day

T1 sequence (P22303 whole entry): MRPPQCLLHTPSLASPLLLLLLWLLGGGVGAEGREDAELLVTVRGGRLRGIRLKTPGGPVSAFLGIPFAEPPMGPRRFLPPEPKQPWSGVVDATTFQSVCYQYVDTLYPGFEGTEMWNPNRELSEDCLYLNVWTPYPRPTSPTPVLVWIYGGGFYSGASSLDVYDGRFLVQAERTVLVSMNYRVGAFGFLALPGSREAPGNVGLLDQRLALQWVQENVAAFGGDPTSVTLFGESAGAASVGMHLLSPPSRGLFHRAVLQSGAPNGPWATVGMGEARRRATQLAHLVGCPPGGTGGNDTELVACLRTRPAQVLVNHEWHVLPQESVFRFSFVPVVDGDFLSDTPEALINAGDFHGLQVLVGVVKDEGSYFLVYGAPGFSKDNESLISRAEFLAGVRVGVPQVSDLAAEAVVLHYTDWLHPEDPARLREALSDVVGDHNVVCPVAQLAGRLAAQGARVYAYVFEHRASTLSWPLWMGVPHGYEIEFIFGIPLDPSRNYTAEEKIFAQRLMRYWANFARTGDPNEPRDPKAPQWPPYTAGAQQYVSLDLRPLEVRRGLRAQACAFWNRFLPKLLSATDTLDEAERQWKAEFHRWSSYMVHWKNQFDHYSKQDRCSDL
T2 sequence (P06276 whole entry): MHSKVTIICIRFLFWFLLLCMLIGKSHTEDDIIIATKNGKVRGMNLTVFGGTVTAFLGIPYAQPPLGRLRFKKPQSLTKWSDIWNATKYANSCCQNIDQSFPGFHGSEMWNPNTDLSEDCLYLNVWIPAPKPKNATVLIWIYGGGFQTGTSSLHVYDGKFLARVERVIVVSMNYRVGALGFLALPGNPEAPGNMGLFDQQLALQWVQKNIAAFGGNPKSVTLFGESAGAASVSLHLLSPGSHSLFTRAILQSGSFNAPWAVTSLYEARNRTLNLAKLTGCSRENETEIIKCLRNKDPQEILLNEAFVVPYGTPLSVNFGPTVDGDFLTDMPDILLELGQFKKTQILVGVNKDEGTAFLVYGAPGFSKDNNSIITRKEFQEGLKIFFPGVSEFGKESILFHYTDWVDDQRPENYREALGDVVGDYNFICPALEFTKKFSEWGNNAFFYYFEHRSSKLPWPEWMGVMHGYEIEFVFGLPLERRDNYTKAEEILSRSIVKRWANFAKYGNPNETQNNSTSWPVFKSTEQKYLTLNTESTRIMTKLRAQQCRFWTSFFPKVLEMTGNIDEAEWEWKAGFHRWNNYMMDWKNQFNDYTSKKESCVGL

With CCN(CCCCOc1ccc(-c2cc(=O)c3c(O)cc(OCCCCN(CC)Cc4ccccc4)cc3o2)cc1)Cc1ccccc1 the Activity [1] was 66.7%, the Activity [2] was 70% and the IC50 (Acetylcholinesterase [3]) was 360 nM. The Activity (Danio rerio [4]) was “Dose-dependent effect”, the Drug metabolism [5] was “Metabolite_Detected” and the Activity (U-87MG ATCC) was “Active”. For the same compound, the Activity (HT-22 [6]) was “Active”, the Activity (HT-22 [7]) was “Active” and the Activity [8] was 46.7%. The Activity [9] was 53.3%, the Time (Mus musculus [10]) was 245.98 s and the Activity [11] was 81.3%. It also gave an IC50 [12] of 5800 nM, an Activity [13] of 33.3% and an Activity [14] of 46.7%. For the same compound, the Activity (HT-22 [15]) was “Dose-dependent effect”, the Kdiss (Homo sapiens [16]) was 2.56 10^-2/s and the Activity (HT-22 [17]) was “Active”. For the same compound, the Activity (Homo sapiens [18]) was “Dose-dependent effect”, the Kd [19] was 1200 nM and the Drug metabolism [20] was “Metabolite_Detected”. The Activity (Danio rerio [21]) was 72%, the Drug metabolism [22] was “Metabolite_Detected” and the Ki (Acetylcholinesterase [23]) was 394 nM. The Activity (Mus musculus [24]) was 94.34%, the Activity [25] was “Non-Toxic” and the Activity (SH-SY5Y) was “Active”. The Activity [26] was 26.7%, the Drug metabolism [27] was “Metabolite_Detected” and the Activity (HT-22 [28]) was “Dose-dependent effect”. The Activity [29] was “Active”, the Activity (Danio rerio [30]) was 12% and the Activity [31] was “Non-Toxic”. For the same compound, the IC50 (Cholinesterase [32]) was 15300 nM, the Activity (Cholinesterase [33]) was 97.6% and the Activity (Danio rerio [34]) was 67%. For the same compound, the Activity (PC-12) was “Dose-dependent effect”, the Activity [35] was “inactive” and the Activity [36] was “Active”. The Drug metabolism [37] was “Metabolite_Detected”, the inhibition [38] was “Active” and the Activity [39] was 73.3%.
